Test results from patent US20180092840A1, “ULTRASOUND-ENHANCED DRUG DELIVERY FOR TREATMENT OF ONYCHOMYCOSIS” (The George Washington University, priority 2016, published 2018).

How the values were obtained:
[1] = diffusion cell test (Franz Diffusion Cell, spectrophotometry) of blue dye through nail with ultrasound; assay type: in vitro ADME, pig; conditions: 5 min sonication, 60 min total, n=6
Description: A second set of experiments was conducted utilizing a diffusion cell system 500, as set forth in FIG. 5 (hereinafter, the “diffusion cell test”). As described more fully below, a diffusion cell 502 having a receiving compartment 504 containing a stir bar 506 were positioned at the bottom of the system 500. A sampling port 508 projected from a side of the receiving compartment 504 to collect liquids contained therein. A nail adapter 510 fitted with a nail 512 was positioned above the diffusion cell 502. A lid adapter 514 was positioned above the nail 512. The lid adapter 514 contained a donor compartment 516, which held the blue dye, as well as a thermocouple 518 and a transducer 520. The parameters of the diffusion cell test were the same as set forth above with respect to Example 1, except in this example, spectrophotometry and a Franz Diffusion Cell were used to measure how much of the blue dye compound permeated all the way through the nail from a donor compartment (filled with the dye) to a receiver compartment, using dilution at different ultrasound parameters.
The diffusion cell (commercially available from PermeGear, Inc., Hellertown, Pa., USA) was fit with a custom-made nail adapter to avoid leakage of dye around the nail and a lid adapter so that 50 mL of dye and the transducer could easily fit above the nail adapter, as illustrated in FIG. 5. The nail adapter was made from plastic that screws together tightly and secures to the diffusion cell using small metal clamps. The lid adapter was made from a plastic beaker and secured onto the top of the nail adapter using epoxy. During the experimentation, the receiver compartment of the diffusion cell was filled with saline solution and a magnetic stirring bar which was spun at 450 RPM to ensure the compartment was fully mixed. The entire diffusion cell was placed in a water bath at 37° C. The donor compartment was then filled with 50 mL of the previously-described blue dye. Before being placed in the donor compartment, the blue dye was maintained at room temperature for at least 20 minutes. The transducer was placed 85 mm from the nail (as opposed to 45 mm from the nail in the luminosity experiment). The nail was then sonicated for five (5) minutes.
After sonication, the diffusion cell experiment continued for another 55 minutes to allow the dye to travel through the entirety of the nail. The Control nails were not treated with any ultrasound and were exposed to the dye solution for 60 minutes. […]
After the completion of the experiment, 2 mL of solution was collected from the receiving compartment of the diffusion cell and its absorption was measured with the spectrophotometer (commercially available as UVmini-1240 from Shimadzu Scientific Instruments of Columbia, Md., USA) using saline as a base. […]

onychomycosis = conditions: cited from earlier work; for side effects: onychomycosis treatment

## CCN(Cc1cccc(S(=O)(=O)[O-])c1)c1ccc(C(=C2C=CC(=[N+](CC)Cc3cccc(S(=O)(=O)[O-])c3)C=C2)c2ccccc2S(=O)(=O)[O-])cc1.[Na+].[Na+] [blue dye, FD&C Blue No. 1—Brilliant Blue FCF, E133]
[1]; 1 MHz
  increase in nail permeability vs Control: 70.3%
[1]; 400 kHz
  increase in nail permeability vs Control: 26.7%
[1]; 600 kHz
  increase in nail permeability vs Control: 19.5%
[1]; 800 kHz
  increase in nail permeability vs Control: 44.5%

## Cc1cc(C2CCCCC2)n(O)c(=O)c1 [ciclopirox]
onychomycosis; nail polish form, after six (6) months of daily application
  cure rate: 36%
onychomycosis
  side effects: only non-serious, infrequently reported side effects

## C=C1CCN([C@H](C)[C@](O)(Cn2cncn2)c2ccc(F)cc2F)CC1 [Efinaconazole]
onychomycosis; topical, applied for up to ten (10) months
  cure rate compared with Ciclopirox: slightly better cure rate

## CN(C/C=C/C#CC(C)(C)C)Cc1cccc2ccccc12 [Terbinafine]
onychomycosis
  side effects: elevated levels of liver enzymes and hepatitis
onychomycosis; orally prescribed
  overall failure rate: greater than 30%
  time to work: > 6 months
